Key:
Assay in all cases: selective drug sensitivity score (sDSS, relative to normal bone marrow) (sDSS (score)); higher = more potent and effective on the cell line relative to normal bone marrow cells
Conditions in all cases: 72 h
COG-LL-317 = system: COG-LL-317
NALM-6 = system: NALM-6
SEM cells = system: SEM cells
MHH-CALL-4 = system: MHH-CALL-4
KASUMI-10 = system: KASUMI-10
SUP-B15 = system: SUP-B15
MHH-CALL-2 = system: MHH-CALL-2
LC4-1 = system: LC4-1
380 = system: 380
ALL-PO = system: ALL-PO
COG-LL-319h = system: COG-LL-319h
DND-41 = system: DND-41
RPMI-8402 = system: RPMI-8402
HPB-ALL = system: HPB-ALL
REH = system: REH
KASUMI-2 = system: KASUMI-2
RCH-ACV = system: RCH-ACV
TANOUE = system: TANOUE
COG-LL-394h = system: COG-LL-394h
CCRF-CEM = system: CCRF-CEM
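Note: ALL cell lines in 384-well plates, five doses spanning 10,000-fold, each plate scaled between vehicle and 100 µmol/L benzalkonium chloride controls, sDSS an adapted area-under-curve metric.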

Row | Structure (SMILES) | selective drug sensitivity score (COG-LL-317) | selective drug sensitivity score (NALM-6) | selective drug sensitivity score (SEM cells) | selective drug sensitivity score (MHH-CALL-4) | selective drug sensitivity score (KASUMI-10) | selective drug sensitivity score (SUP-B15) | selective drug sensitivity score (MHH-CALL-2) | selective drug sensitivity score (LC4-1) | selective drug sensitivity score 380 | selective drug sensitivity score (ALL-PO) | selective drug sensitivity score (COG-LL-319h) | selective drug sensitivity score (DND-41) | selective drug sensitivity score (RPMI-8402) | selective drug sensitivity score (HPB-ALL) | selective drug sensitivity score (REH) | selective drug sensitivity score (KASUMI-2) | selective drug sensitivity score (RCH-ACV) | selective drug sensitivity score (TANOUE) | selective drug sensitivity score (COG-LL-394h) | selective drug sensitivity score (CCRF-CEM)
1 | CNC(=O)c1cc(Oc2ccc(NC(=O)Nc3ccc(Cl)c(C(F)(F)F)c3)c(F)c2)ccn1 [Regorafenib] (top concentration 10000 nM) | 2.54 | 4.04 | 10 | 2.74 | 7.34 | 9.14 | 1.64 | 6.74 | 8.54 | 7.14 | 1.84 | 4.44 | 3.44 | 1.34 | 4.44 | 10 | 10.9 | 4.44 | 5.94 | 3.74
2 | CN(C)Cc1ccc(S(=O)(=O)n2ccc(/C=C/C(=O)NO)c2)cc1 [Resminostat] (top concentration 10000 nM) | 5.14 | 1.34 | 8.64 | 7.04 | 5.94 | 9.74 | 8.14 | 4.54 | 7.44 | 6.34 | 12.2 | 1.74 | 7.24 | 6.24 | 2.04 | 11.7 | 12.2 | -4.16 | 2.04 | 3.74
3 | COc1cc(OC)c(/C=C/S(=O)(=O)Cc2ccc(OC)c(NCC(=O)O)c2)c(OC)c1 [Rigosertib] (top concentration 10000 nM) | 14.3 | 16.1 | 17.3 | 8.26 | 12 | 14.6 | 15.2 | 16.6 | 14.3 | 11.2 | 4.96 | 9.06 | 13.3 | 13.5 | 14 | 14.6 | 17.3 | -5.04 | 6.76 | 14.4
4 | COc1ccc(CCc2nc3cc(-c4c(C)noc4C)ccc3n2C[C@H](C)N2CCOCC2)cc1Cl [SGC-CBP30] (top concentration 25000 nM) | 5.98 | 0.08 | 6.48 | 1.68 | 4.78 | 6.28 | 5.88 | 7.48 | 0.38 | 4.38 | 16.4 | 2.88 | 5.08 | 1.88 | -0.02 | -2.12 | 7.88 | -3.12 | 5.38 | 4.28
5 | CCS(=O)(=O)c1cccc(-c2cc(C(=O)NC3CCN(C)CC3)c(C)c3[nH]c4ncc(C)cc4c23)c1 [TAK-901] (top concentration 1000 nM) | 11.7 | 9.66 | 9.36 | 3.16 | 9.76 | 11 | 7.26 | 10.8 | 10.4 | 7.76 | 10.5 | 0.66 | 6.56 | 5.36 | 11.1 | 7.56 | 10.7 | -4.74 | 3.66 | 11.2
6 | Nc1nc(NC2CC2)cc(-c2cccc(Cl)c2Cl)n1 [TH588] (top concentration 25000 nM) | 7.72 | -0.58 | 8.62 | -0.58 | 6.22 | 7.62 | -0.58 | 8.72 | -0.58 | 10.5 | 3.82 | 5.82 | 5.72 | 3.92 | 5.82 | -0.58 | 3.52 | -0.58 | -0.58 | 7.52
7 | CC(=O)Nc1ccc(C(=O)Nc2ccccc2N)cc1 [Tacedinaline] (top concentration 1000 nM) | -0.02 | -0.02 | 4.08 | 9.18 | 0.98 | 4.58 | 7.68 | 1.18 | 12.2 | -0.02 | 1.98 | -0.02 | 1.58 | -0.02 | -0.02 | -0.02 | 0.48 | -0.02 | -0.02 | 2.08
8 | Cn1ncnc1[C@H]1c2n[nH]c(=O)c3cc(F)cc(c23)N[C@@H]1c1ccc(F)cc1 [Talazoparib] (top concentration 1000 nM) | 19.7 | 3.78 | 0.78 | 10.2 | 3.38 | 20.1 | 9.48 | 3.18 | 21.4 | 4.78 | 21.3 | 3.48 | 0.58 | -4.92 | -3.72 | 13.2 | 10.7 | -4.92 | -0.62 | 5.98
9 | COc1cccc2c1c(O)c(C(=O)N(C)c1ccc(C(F)(F)F)cc1)c(=O)n2C [Tasquinimod] (top concentration 10000 nM) | 0.28 | -0.42 | -0.42 | 0.68 | -0.42 | 2.78 | 0.88 | -0.42 | -0.42 | -0.32 | 16.6 | 1.08 | -0.42 | -0.42 | -0.42 | -0.42 | -0.42 | 1.58 | -0.42 | -0.42
10 | Nc1nc2[nH]cnc2c(=S)[nH]1 [Thioguanine] (top concentration 10000 nM) | 23 | 10.2 | 13 | 4.34 | 5.24 | 19.2 | 11.9 | 12.4 | 6.04 | 11.2 | 18.6 | 13.1 | 14.9 | 11.2 | 10.8 | 2.54 | 14.3 | 5.54 | 2.44 | 15.3
11 | CC#CC(=O)N1CC[C@@H](n2c(=O)n(-c3ccc(Oc4ccccc4)cc3)c3c(N)ncnc32)C1 [Tirabrutinib] (top concentration 1000 nM) | 0 | 0 | 1.1 | 1.5 | 0 | 14.7 | 0 | 0.7 | 1.2 | 0 | 3.7 | 2.3 | 0 | 0 | 0 | 2.9 | 11 | 0 | 0 | 0
12 | CC(C)C[C@@H](C(=O)N[C@H](C(=O)OC1CCCC1)c1ccccc1)[C@H](O)C(=O)NO [Tosedostat] (top concentration 10000 nM) | 14.9 | -1.04 | 0.86 | 1.26 | 7.06 | 11 | 5.76 | 2.26 | 5.76 | 6.96 | 3.96 | 5.16 | 2.86 | -4.94 | -0.64 | -5.44 | 2.16 | -5.24 | 1.26 | 4.36
13 | CS(=O)(=O)c1ccc(-c2cnc(N)c(C(=O)Nc3ccccc3)n2)cc1 [VE-821] (top concentration 10000 nM) | 12.7 | -0.66 | 2.44 | -0.66 | 2.54 | 6.94 | 7.84 | 4.64 | 2.54 | 2.64 | 11.2 | -0.66 | 5.54 | 5.04 | 7.14 | -0.66 | 7.94 | 0.64 | -0.66 | -0.66
14 | CNC(=O)c1ccccc1Nc1cc(Nc2ccc(N3CCOCC3)cc2OC)ncc1C(F)(F)F [VS-4718] (top concentration 10000 nM) | -0.8 | 0.4 | 7.9 | 6.4 | 11.2 | -3 | 8.9 | -3 | -5 | 14 | -5 | -0.9 | 8.8 | 1.7 | -1.1 | -5 | 0.8 | -5 | -0.4 | 2
15 | Cc1cccc(-c2[nH]c(CNc3ccccc3F)nc2-c2ccc3ncnn3c2)n1 [Vactosertib (TEW-7197)] (top concentration 2500 nM) | -0.3 | -0.5 | 4.5 | 7.2 | -0.5 | 9 | -0.3 | -0.1 | 0.8 | -0.5 | 7.2 | 3 | -0.5 | -0.5 | -0.5 | -0.5 | -0.5 | -0.5 | -0.5 | -0.5
16 | O=C(/C=C\n1cnc(-c2cc(C(F)(F)F)cc(C(F)(F)F)c2)n1)NNc1ccccn1 [Verdinexor] (top concentration 1000 nM) | 12.5 | 11.7 | 0.34 | 1.84 | 1.54 | 11.2 | 1.84 | 1.94 | 12 | 7.54 | 11.3 | 11.6 | 8.34 | 1.84 | 4.44 | 12.9 | 9.04 | -6.96 | 3.64 | 5.24
17 | CC[C@@H]1C(=O)N(C)c2cnc(Nc3ccc(C(=O)N[C@H]4CC[C@H](N5CCN(CC6CC6)CC5)CC4)cc3OC)nc2N1C(C)C [Volasertib] (top concentration 1000 nM) | 16.7 | 11.9 | 21.4 | 0.9 | 8 | 19.2 | 10.6 | 13.4 | 15 | 16.1 | 14.9 | 11.2 | 20.8 | 15.5 | 12.8 | 5.7 | 13.9 | -7 | 7.7 | 13.8
18 | O=C(CCCCCCC(=O)Nc1ccccc1)NO [Vorinostat] (top concentration 10000 nM) | 8.2 | 2.3 | 11.3 | 3.9 | 4.6 | 11.9 | 8.7 | 8.2 | 8.8 | 10.1 | 11.5 | 2.2 | 8.2 | 6 | 4.5 | 17.6 | 16.5 | -2.6 | 1 | 5.9

Reference: the supplement of paper PMC8967900
